Source: patent US5420143A, “Piperidine derivatives for treating allergy” (Kowa Co., Ltd., priority 1993, dated 1995)

Assays:
[1] = test system: ileum isolated from guinea pigs, contraction induced by histamine; assay: Inhibition of histamine-induced contraction of isolated guinea pig ileum (antihistamine activity); conditions: Average ± S.D.; histamine 1×10^-5 M; 30 minutes incubation with test compound; test compound concentration not given
Description: (§1) Antihistamine activity and antileukotriene activity:
(§2) The first three constant constractions induced by histamine (1×10^-5 M) or leukotriene D4 (1×10^-8 M) were used as the reference for the calculation of the inhibitory ratio. After repeated washings until contraction movement recurred, ileal strip was incubated with the test compound for 30 minutes. The contraction test was then conducted again using histamine or leukotriene D4. The inhibitory ratio (%) of the test compound on the ileum was calculated according to the following equation: [formula]

[2] = test system: ileum isolated from guinea pigs, contraction induced by leukotriene D4; assay: Inhibition of leukotriene D4 induced contraction of isolated guinea pig ileum (antileukotriene activity); conditions: Average ± S.D.; leukotriene D4 1×10^-8 M; 30 minutes incubation with test compound; test compound concentration not given
Description: as §1, §2

Leukotriene D4 receptors = molecular target: T1, Leukotriene D4 receptors (Cavia porcellus, UniProt Q2NNR5); assay: Binding assay on Leukotriene D4 receptors (guinea-pig lung membrane protein, [^3 H]-leukotriene D4)
T1 construct: Preparation of guinea-pig lung membrane protein; from tissue; host or cells: guinea-pig lung membranes
T1 sequence (Q2NNR5 1-340): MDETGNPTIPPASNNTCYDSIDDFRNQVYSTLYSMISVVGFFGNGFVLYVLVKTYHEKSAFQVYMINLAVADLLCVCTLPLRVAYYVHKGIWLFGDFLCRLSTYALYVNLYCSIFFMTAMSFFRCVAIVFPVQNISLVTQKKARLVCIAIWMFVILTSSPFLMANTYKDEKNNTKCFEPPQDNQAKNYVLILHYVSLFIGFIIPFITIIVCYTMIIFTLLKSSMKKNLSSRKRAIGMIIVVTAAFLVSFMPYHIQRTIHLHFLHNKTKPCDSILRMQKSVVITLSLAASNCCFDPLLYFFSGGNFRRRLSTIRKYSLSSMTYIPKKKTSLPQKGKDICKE
Excerpt: Binding assay on Leukotriene D4 receptors:
a) Preparation of guinea-pig lung membrane protein:

| antileukotriene activity (nature of the activity) (Leukotriene D4 receptors; binding assay on leukotriene D4 receptors) | Kd (Leukotriene D4 receptors; read-out: binding affinity on leukotriene D4 receptors (Kd)) [nM] | Structure (SMILES) | Inhibition vs histamine-induced contraction (%) [1] [%] | Inhibition vs leukotriene D4 induced contraction (%) [2] [%] |
| --- | --- | --- | --- | --- |
| antagonistic | 2320 | O=c1cc(-c2nnn[nH]2)oc2cc(OCCCN3CCC(=C(c4ccccc4)c4ccccc4)CC3)ccc12 [Compound (1), 7-[3-(4-Diphenylmethylenepiperidin-1-yl)propyloxy]-2-(5-tetrazolyl)-4-oxo-4H-benzopyran] | 52 ± 7 | 15 ± 1 |
| – | – | CCCc1c(OCC(O)COc2ccc3c(=O)cc(C(=O)O)oc3c2CCC)ccc(C(C)=O)c1O (centres unmarked) [FPL-55712] | 0 | 11 ± 4 |
| – | – | CC(C)(C)c1ccc(C(O)CCCN2CCC(C(O)(c3ccccc3)c3ccccc3)CC2)cc1 (centres unmarked) [Terfenadine] | 5 ± 1 | 0 |
